Data reported in PubChem BioAssay AID2060495 (Molecular Pharmacology Branch, DTP, NCI, 2025).

Tested on: 521955-158-R2-J5-PDC complex spheroid viability
Experiment: Anticancer human tumor 521955-158-R2-J5-PDC patient-derived pancreatic carcinoma cell line growth inhibition [GQUAD]
Conditions: for IC50: curve of first compound; for viability, T/C: stronger effect = lower value
Summary of the method: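 Viability of tumor cells grown as complex spheroids with endothelial and stromal cells, exposed to drug combinations. Top concentration at or near clinical Cmax (else 10 microM), diluted in half-log increments.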

[1] = second compound 0.0316 µM, first compound 0.0316 µM
[2] = second compound 0.0316 µM, first compound 0.1 µM
[3] = second compound 0.0316 µM, first compound 0.316 µM
[4] = second compound 0.0316 µM, first compound 1 µM
[5] = second compound 0.0316 µM, first compound 3.16 µM
[6] = second compound 0.0316 µM, first compound 10 µM
[7] = second compound 0.1 µM, first compound 0.0316 µM
[8] = second compound 0.1 µM, first compound 0.1 µM
[9] = second compound 0.1 µM, first compound 0.316 µM
[10] = second compound 0.1 µM, first compound 1 µM
[11] = second compound 0.1 µM, first compound 3.16 µM
[12] = second compound 0.1 µM, first compound 10 µM
[13] = second compound 0.316 µM, first compound 0.0316 µM
[14] = second compound 0.316 µM, first compound 0.1 µM
[15] = second compound 0.316 µM, first compound 0.316 µM
[16] = second compound 0.316 µM, first compound 1 µM
[17] = second compound 0.316 µM, first compound 3.16 µM
[18] = second compound 0.316 µM, first compound 10 µM
[19] = second compound 1 µM, first compound 0.0316 µM
[20] = second compound 1 µM, first compound 0.1 µM
[21] = second compound 1 µM, first compound 0.316 µM
[22] = second compound 1 µM, first compound 1 µM
[23] = second compound 1 µM, first compound 3.16 µM
[24] = second compound 1 µM, first compound 10 µM
[25] = second compound 3.16 µM, first compound 0.0316 µM
[26] = second compound 3.16 µM, first compound 0.1 µM
[27] = second compound 3.16 µM, first compound 0.316 µM
[28] = second compound 3.16 µM, first compound 1 µM
[29] = second compound 3.16 µM, first compound 3.16 µM
[30] = second compound 3.16 µM, first compound 10 µM
[31] = second compound 10 µM, first compound 0.0316 µM
[32] = second compound 10 µM, first compound 0.1 µM
[33] = second compound 10 µM, first compound 0.316 µM
[34] = second compound 10 µM, first compound 1 µM
[35] = second compound 10 µM, first compound 3.16 µM
[36] = second compound 10 µM, first compound 10 µM
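Note: spheroids exposed to agents for one week before reading.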
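Throughout, for viability, T/C: 100% = DMSO vehicle control viability.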

In the case of `O=c1[nH]cc(F)c(=O)[nH]1` + CN(C)c1ccc(Nc2c3ccc(NC(=O)CCN4CCCC4)cc3nc3cc(NC(=O)CCN4CCCC4)ccc23)cc1, the IC50 (second compound 0.0316 µM) is reported as over 10 µM, the IC50 (second compound 0.1 µM) is reported as over 10 µM and the IC50 (second compound 0.316 µM) is reported as over 10 µM. The IC50 (second compound 1 µM) was over 10 µM, the IC50 (second compound 3.16 µM) was over 10 µM and the IC50 (second compound 10 µM) was over 10 µM. For the same compound, the viability, T/C [1] was 103%, the viability, T/C [2] was 112% and the viability, T/C [3] was 97.8%. It also gave a viability, T/C [4] of 105%, a viability, T/C [5] of 109% and a viability, T/C [6] of 51.5%. For the same compound, the viability, T/C [7] was 91.3%, the viability, T/C [8] was 88.9% and the viability, T/C [9] was 95.9%. It also gave a viability, T/C [10] of 93.4%, a viability, T/C [11] of 95% and a viability, T/C [12] of 56.1%. The viability, T/C [13] was 91.3%, the viability, T/C [14] was 92.7% and the viability, T/C [15] was 108%. For the same compound, the viability, T/C [16] was 96.8%, the viability, T/C [17] was 94.4% and the viability, T/C [18] was 58.5%. The viability, T/C [19] was 80.9%, the viability, T/C [20] was 82.8% and the viability, T/C [21] was 86.1%. The viability, T/C [22] was 101%, the viability, T/C [23] was 94.8% and the viability, T/C [24] was 55.9%. The viability, T/C [25] was 86.4%, the viability, T/C [26] was 87.4% and the viability, T/C [27] was 97.1%. For the same compound, the viability, T/C [28] was 85%, the viability, T/C [29] was 93.9% and the viability, T/C [30] was 53.4%. The viability, T/C [31] was 58.5%, the viability, T/C [32] was 58.1% and the viability, T/C [33] was 75.3%. It also gave a viability, T/C [34] of 65.3%, a viability, T/C [35] of 66.1% and a viability, T/C [36] of 49.5%.
For `COc1ccc([C@@H](O)c2cc(-c3ncnc4cc(N5CCOCC5)ccc34)c(F)cc2Cl)nn1` + Cc1[nH]c2ccc(F)cc2c1-c1nc2c3cccnc3c3ncccc3c2[nH]1, the IC50 (second compound 0.0316 µM) was 3.52 µM, the IC50 (second compound 0.1 µM) was 2.69 µM and the IC50 (second compound 0.316 µM) was 3.7 µM. It also gave an IC50 (second compound 1 µM) of 3.67 µM, an IC50 (second compound 3.16 µM) of 1.96 µM and an IC50 (second compound 10 µM) of 3.08 µM. It also gave a viability, T/C [1] of 93%, a viability, T/C [2] of 92.3% and a viability, T/C [3] of 73.7%. It also gave a viability, T/C [4] of 62.3%, a viability, T/C [5] of 56% and a viability, T/C [6] of 34.5%. It also gave a viability, T/C [7] of 88.6%, a viability, T/C [8] of 93% and a viability, T/C [9] of 69.7%. It also gave a viability, T/C [10] of 66.7%, a viability, T/C [11] of 47.1% and a viability, T/C [12] of 34.1%. It also gave a viability, T/C [13] of 82.3%, a viability, T/C [14] of 95.6% and a viability, T/C [15] of 83.2%. For the same compound, the viability, T/C [16] was 68.6%, the viability, T/C [17] was 54.3% and the viability, T/C [18] was 34.9%. For the same compound, the viability, T/C [19] was 88.4%, the viability, T/C [20] was 112% and the viability, T/C [21] was 88.5%. For the same compound, the viability, T/C [22] was 66.6%, the viability, T/C [23] was 58.4% and the viability, T/C [24] was 32.2%. The viability, T/C [25] was 86.1%, the viability, T/C [26] was 90.5% and the viability, T/C [27] was 75.9%. It also gave a viability, T/C [28] of 60.4%, a viability, T/C [29] of 43.3% and a viability, T/C [30] of 32.2%. The viability, T/C [31] was 99.4%, the viability, T/C [32] was 88.6% and the viability, T/C [33] was 74.9%. It also gave a viability, T/C [34] of 64.3%, a viability, T/C [35] of 54.6% and a viability, T/C [36] of 30.4%.
For `Nc1ccn(C2OC(CO)C(O)C2(F)F)c(=O)n1` (stereo unspecified) + CN(C)c1ccc(Nc2c3ccc(NC(=O)CCN4CCCC4)cc3nc3cc(NC(=O)CCN4CCCC4)ccc23)cc1, the IC50 (second compound 0.0316 µM) was 0.774 µM, the IC50 (second compound 0.1 µM) was 0.423 µM and the IC50 (second compound 0.316 µM) was 0.434 µM. It also gave an IC50 (second compound 1 µM) of 0.394 µM, an IC50 (second compound 3.16 µM) of 0.157 µM and an IC50 (second compound 10 µM) of 0.083 µM. The viability, T/C [1] was 76.5%, the viability, T/C [2] was 73.5% and the viability, T/C [3] was 66%. For the same compound, the viability, T/C [4] was 45.1%, the viability, T/C [5] was 24.1% and the viability, T/C [6] was 12.6%. It also gave a viability, T/C [7] of 76.6%, a viability, T/C [8] of 76.5% and a viability, T/C [9] of 54.5%. The viability, T/C [10] was 32.3%, the viability, T/C [11] was 19.5% and the viability, T/C [12] was 14.7%. For the same compound, the viability, T/C [13] was 65.2%, the viability, T/C [14] was 66.7% and the viability, T/C [15] was 56.9%. For the same compound, the viability, T/C [16] was 31.1%, the viability, T/C [17] was 17.1% and the viability, T/C [18] was 14.2%. It also gave a viability, T/C [19] of 71.7%, a viability, T/C [20] of 58.7% and a viability, T/C [21] of 57.1%. The viability, T/C [22] was 25.9%, the viability, T/C [23] was 12.5% and the viability, T/C [24] was 12%. It also gave a viability, T/C [25] of 61.6%, a viability, T/C [26] of 52.8% and a viability, T/C [27] of 43.2%. It also gave a viability, T/C [28] of 22.4%, a viability, T/C [29] of 12.5% and a viability, T/C [30] of 11.9%. It also gave a viability, T/C [31] of 64.8%, a viability, T/C [32] of 39.9% and a viability, T/C [33] of 41.1%. The viability, T/C [34] was 27%, the viability, T/C [35] was 17.2% and the viability, T/C [36] was 11.6%.
